From patent US8748569B2, “Peptide amphiphiles and methods to electrostatically control bioactivity of the ikvav peptide epitope” (Northwestern University, priority 2011, dated 2014)
Each block holds one compound with its values, some of them ahead of it. Peptide text beside a SMILES is read from it. * marks the point of attachment. Palmitoyl = CCCCCCCCCCCCCCCC(=O)*

How the values were obtained:
Circular dichroism (CD) = type: physicochemical; conditions: 1 wt % in 150 mM NaCl, 3 mM KCl
Protocol: CD was done using a model J-715 Jasco Circular Dichroism Spectrometer. 1 wt % PA solutions were prepared in either a 150 mM NaCl, 3 mM KCl solution or a 150 mM NaCl, 3 mM KCl, and 5 mM CaCl2 solution, both at a pH of 7.2-7.4, as determined via pH paper. The solutions were then heated to 80° C. in a water bath for 1 hr, and then slowly cooled to room temperature over the course of 8 hr. The samples were measured through 0.01 mm quartz plates. Each trace represents the average of three scans. The mean residue ellipticity was corrected for purity of the lyophilized powder from peptide content analysis.

[1] = Small-angle X-ray scattering (SAXS) of PA nanostructures; type: physicochemical; conditions: (Core) Shell Cylinder SAXS model; for Total SAXS Cross-section dimensions: diameter
Excerpt: Small-angle X-ray scattering (SAXS) measurements were obtained using a Rigaku S-MAX 3000 High Brilliance SAXS System. Cu Ka radiation was generated by Osmic MicroMaxs, an integrated microfocus sealed tube generator (powered at 45 kV and 0.9 mA) with Osmict Confocal Max-Fluxs optics, 3 pinholes collimation. A 20×20 cm^2 2D position-sensitive wire detector (1024×1024 pixels) was positioned 150 cm behind the examined samples, resulting in a q-range of 0.07-2.8 nm^−1. The wave vector defined as, q=(4π/λ)sin(2θ/2), where 2y is the scattering angle and λ is wavelength of Cu Kα radiation (1.542 Å). A total of 10^6 or more counts were collected in order to obtain a high signal to noise ratio. Samples were measured for 3600 s, and then background subtracted from data collected using a capillary containing the isotonic salt solution. The 2D SAXS patterns were azimuthally averaged and the background subtracted using standard methods. Data analysis was based on fitting the scattering curve to an appropriate model by a least-squares method using software provided by NIST (NIST SANS analysis version 7.0 on IGOR) ^21 The table below lists the models used to fit the SAXS curves. The Total SAXS cross-sectional dimensions correspond to length and width for molecule 2, and diameter for 3-5.

[2] = Solubility in physiologically relevant monovalent salt solution; type: physicochemical; conditions: monovalent salt solution composed of 150 mM NaCl and 3 mM KCl
[3] = test system: P19 embryonal carcinoma cells differentiated into neurons; assay: Neurite outgrowth of neurons cultured in peptide amphiphile gels; type: cell-based, murine; conditions: compared to gels of PA 1; for promotion of neurite outgrowth (in words): gels containing 0.2 wt % of the PA with 0.8 wt % PA 1
Protocol: P19 embryonal carcinoma cells were cultured in media composed of α-MEM (Gibco), 7.5% newborn calf serum (Lonza), 2.5% fetal bovine serum (Gibco), penicillin (100 units/ml) and streptomycin (100 ug/ml) (Invitrogen). Neuronal differentiation was induced by plating P19 cells in non-treated Petri dishes in media containing 5 uM retinoic acid (Sigma) for 4 days. Neurospheres were collected from the Petri dish and allowed to settle in a centrifuge tube for 10 minutes. Media was removed, then trypsin/EDTA solution was added and the tube was gently agitated for 5 minutes. Cells were dissociated by triturating the neurospheres, then media was added to inactivate the trypsin. Cells were centrifuged and the pellet resuspended in media to a concentration of 25,000 cells/ul. Cells were mixed (1:4) with PA solution. The PA/cell solution was pipetted into coverslip-bottom culture dishes (MatTek) and covered with gelling solution (150 mM NaCl, 3 mM KCl, 25 mM CaCl2) for 1 minute to induce gelation, then rinsed with a 150 mM NaCl, 3 mM KCl solution, then media was added to the dish. Cells were cultured for 2 days.
In order to assay neurite outgrowth, gels were rinsed with PBS, then fixed in 4% paraformaldehyde for 30 minutes at room temperature. Gels were rinsed 3× with PBS followed by addition of 10% normal goat serum blocking solution (Invitrogen) with 0.1% Triton X-100 added. Gels were incubated overnight with primary antibody (rabbit anti-β-III-tubulin IgG, 1/2000, Covance) in blocking solution. Gels were rinsed 3× with PBS, then blocked for 30 minutes with blocking solution. Next, gels were incubated with secondary antibody (Alexa Fluor 488 goat anti-rabbit IgG, 1/100, Invitrogen) in blocking solution for 1 hour. After one PBS rinse, nuclei were stained with a 5 ug/ml solution of Hoecsht 34580 (Invitrogen) in PBS for 15 minutes, then rinsed 4 times. Gels were imaged on a Zeiss LSM 510 META laser scanning confocal microscope, individually acquiring z-stacks of randomly chosen cells with neurites. Two gels were imaged per condition for each experiment. Experiments were done in triplicate. For each condition, at least 50 neurons with neurites were imaged. Using the Simple Neurite Tracer plug-in for ImageJ software, neurites were traced and measured. A one-way ANOVA, followed by paired t-tests, were performed to determine significance between conditions. Researchers were blinded to the conditions during imaging and tracing.
Pluripotent murine P19 embryonal carcinoma cells were differentiated into neurons. These neurons were then homogeneously distributed into isotonic salt solutions composed of 0.8 wt % PA 1 mixed with 0.2 wt % 2-5 and gelled with 25 mM CaCl2 (FIG. 3a,b). Mixtures of 1 with 2-5 were used in biological experiments in order to form robust gel matrices capable of supporting cells in culture. After two days of culture, the cells were fixed and the neurites and nuclei were fluorescently labelled green and blue using β-III-tubulin immunostaining and Hoechst staining, respectively, then imaged by confocal microscopy (FIG. 14). Neurites were traced and measured, and average neurite lengths were calculated (FIG. 15).

[4] = Transmission electron microscopy (cryoTEM / conventional TEM) of PA nanostructures; type: physicochemical; conditions: for fiber diameter in trimer ribbons: cryoTEM / TEM, fibers aggregated side-by-side; for OBSERVED FIBER DIAMETER: from TEM; for ASSEMBLED MORPHOLOGY: observed morphologies from TEM; for average diameter of cylindrical fibers: cryoTEM, 150 mM NaCl, 3 mM KCl, pH 7.4
Protocol: The nanostructure of each PA molecule under physiologically relevant conditions was investigated using electron microscopy. Samples for vitreous ice cryo-transmission electron microscopy (cryoTEM) were prepared from a 0.1-0.5 wt % PA solution dissolved in 150 mM NaCl, 3 mM KCl, or in a 150 mM NaCl, 3 mM KCl, and 5 mM CaCl2 solution, both at a pH of 7.2-7.4. The solutions were then heated to 80° C. in a water bath for 1 hr, and then slowly cooled to room temperature over the course of 8 hr. 10 μL of each solution was pipetted onto a plasma cleaned holey carbon TEM grid (Electron Microscopy Sciences), blotted and plunged into liquid ethane using a FEI Vitrobot Mark IV. Samples were kept at −180° C. and imaged using a JEOL 1230 TEM operating at 100 kV.
Samples for conventional TEM microscopy were prepared from 0.1 wt % PA solution dissolved in ultrapure water and adjusted to a pH of 7.2-7.4 by adding NaOH. The solutions were then heated to 80° C. in a water bath for 1 hr, and then slowly cooled to room temperature over the course of 8 hr, unless noted otherwise. 2 μL of a 0.1 wt % PA solution was pipetted onto a Carbon Formvar grid (Electron Microscopy Sciences) and allowed to dry. The samples were then negatively stained by pipetting 2 uL of a 2 wt % Uranyl acetate solution and allowed to dry. Each sample was imaged using a JEOL 1230 TEM operating at 100 kV. The average diameter of nanofibers was obtained via measuring 40-100 different fibers from solutions and grids prepared throughout multiple days.
The assembly of each PA molecule under physiologically relevant conditions was examined using cryogenic electron microscopy (cryoTEM), as described in Example 4. PAs were dissolved in isotonic salt solutions resembling extracellular fluid (150 mM NaCl, 3 mM KCl, pH 7.4). […] In order to compare molecular simulation diameters with those observed from TEM, molecular simulation values for the other four PA molecules were scaled by the same amount, 87%.

peptide secondary structure from CD spectrum (Circular dichroism (CD)): beta-sheet like CD signatures | Core Diameter [1]: 1.2 nm | Shell Thickness [1]: 3.8 ± 0.6 nm | Total SAXS Cross-section dimensions [1]: 7.6 ± 1.2 nm | solubility [2]: soluble | fiber diameter in trimer ribbons [4]: 7.1±1 nm | diameter of cylindrical assemblies ([4]; cryoTEM and conventional TEM): 12.8±1.3 nm | OBSERVED FIBER DIAMETER ([4]; Cylindrical morphology): 128 ± 14 Å | OBSERVED FIBER DIAMETER ([4]; Trimer ribbon morphology): 71 ± 5 Å | ASSEMBLED MORPHOLOGY ([4]; Cylindrical morphology): Cylindrical | ASSEMBLED MORPHOLOGY ([4]; Trimer ribbon morphology): Trimer ribbon
Compound: CCCCCCCCCCCCCCCC(=O)N[C@H](C(=O)N[C@H](C(=O)N[C@@H](C)C(=O)N[C@@H](C)C(=O)N[C@@H](CCC(=O)O)C(=O)N[C@@H](CCC(=O)O)C(=O)N[C@@H](CCC(=O)O)C(=O)NCC(=O)N[C@H](C(=O)N[C@@H](CCCCN)C(=O)N[C@H](C(=O)N[C@@H](C)C(=O)N[C@H](C(=O)O)C(C)C)C(C)C)[C@@H](C)CC)C(C)C)C(C)C [PA 3, CH3(CH2)14C(O)-VVAAEEEGIKVAV-OH] (Palmitoyl-VVAAEEEGIKVAV-OH)
promotion of neurite outgrowth (in words) [3]: promoted neurite outgrowth | promotion of neurite outgrowth (in words) ([3]; listed as SEQ ID NO. 5): promote neurite outgrowth | increase in neurite outgrowth ([3]; gels of 0.8 wt % PA 1 mixed with 0.2 wt % of the PA, gelled with 25 mM CaCl2, 2 days culture): 42±13%

Compound: CH3(CH2)14C(O)-VVAAEE-NH2 (Palmitoyl-VVAAEE-NH2) [PA 1]
average diameter of cylindrical fibers [4]: 6.7±0.9 nm | average diameter of cylindrical fibers ([4]; listed as PA compound 1): 6.7 nm | OBSERVED FIBER DIAMETER [4]: 66 ± 9 Å | ASSEMBLED MORPHOLOGY [4]: Cylindrical fiber

Compound: CH3(CH2)14C(O)-VVAAEEEGGIKVAV-OH (Palmitoyl-VVAAEEEGGIKVAV-OH; SMILES CCCCCCCCCCCCCCCC(=O)N[C@H](C(=O)N[C@H](C(=O)N[C@@H](C)C(=O)N[C@@H](C)C(=O)N[C@@H](CCC(=O)O)C(=O)N[C@@H](CCC(=O)O)C(=O)N[C@@H](CCC(=O)O)C(=O)NCC(=O)NCC(=O)N[C@H](C(=O)N[C@@H](CCCCN)C(=O)N[C@H](C(=O)N[C@@H](C)C(=O)N[C@H](C(=O)O)C(C)C)C(C)C)[C@@H](C)CC)C(C)C)C(C)C) [PA 4]
Core Diameter [1]: .93 nm | Shell Thickness [1]: 2.63 ± 1.1 nm | Total SAXS Cross-section dimensions [1]: 7.1 ± 2.2 nm | promotion of neurite outgrowth (in words) [3]: did not show any biological activity with respect to neurite outgrowth | promotion of neurite outgrowth (in words) ([3]; listed as 4): did not | fiber diameter in bundled dimers ([4]; cryoTEM and conventional TEM): 8.1±1.0 nm | fiber diameter in triple helices ([4]; cryoTEM and conventional TEM): 7.7±0.9 nm | OBSERVED FIBER DIAMETER ([4]; Dimer Bundle morphology): 77 ± 9 Å | OBSERVED FIBER DIAMETER ([4]; Triple helix morphology): 81 ± 10 Å | ASSEMBLED MORPHOLOGY ([4]; Dimer Bundle morphology): Dimer Bundle | ASSEMBLED MORPHOLOGY ([4]; Triple helix morphology): Triple helix

Compound: CH3(CH2)14C(O)-VVAAEEGIKVAV-OH (Palmitoyl-VVAAEEGIKVAV-OH; SMILES CCCCCCCCCCCCCCCC(=O)N[C@H](C(=O)N[C@H](C(=O)N[C@@H](C)C(=O)N[C@@H](C)C(=O)N[C@@H](CCC(=O)O)C(=O)N[C@@H](CCC(=O)O)C(=O)NCC(=O)N[C@H](C(=O)N[C@@H](CCCCN)C(=O)N[C@H](C(=O)N[C@@H](C)C(=O)N[C@H](C(=O)O)C(C)C)C(C)C)[C@@H](C)CC)C(C)C)C(C)C) [PA 2]
peptide secondary structure from CD spectrum (Circular dichroism (CD)): beta-sheet like CD signatures | promotion of neurite outgrowth (in words) [3]: no enhancement of neurite outgrowth | promotion of neurite outgrowth (in words) ([3]; listed as 2): did not | fiber diameter in trimer ribbons [4]: 6.0±0.5 nm | OBSERVED FIBER DIAMETER [4]: 60 ± 5 Å | ASSEMBLED MORPHOLOGY [4]: Trimer ribbon
